Entries after “also recorded” stand apart in the source; their conditions may differ.
What was measured:
[1] = target: M. pneumoniae binding to sulfatide; test: Inhibition of M. pneumoniae binding to sulfatide adsorbed on plastic; set-up: species or system Mycoplasma pneumoniae strain M129; details: for inhibition of binding to sulfatide (in words): sulfatide adsorbed on plastic
Experimental: Virulent M. pneumoniae strain M129, passage 5-15, were grown and metabolically labelled with [^3 H]palmitic acid, 12-17 Ci/mole, as described by Chandler et al. in Infect. Immun. 37: 942, 1982. The organisms were passed four times through a 26 gauge needle and suspended to approximately 10^7 cpm/ml of degassed RPMI 1640 medium containing 1% bovine serum albumin and 25 mM HEPES, pH 7.3.
The binding of M. pneumoniae to purified glycolipids immobilized in microtiter plates was measured as described by Krivan et al. in Proc. Natl. Acad. Sci., op. cit. Purified glycolipids were serially diluted in 25 μl of methanol containing 0.1 μg each of the auxiliary lipids cholesterol and phosphatidylcholine. After the solutions were dried by evaporation, the wells were filled with TBS-BSA, emptied after one hour, rinsed with RPMI-BSA, and incubated with 25 μl of [^3 H]-M. pneumoniae, approximately 10^7 cpm/ml RPMI-BSA. After incubation for two hours at 37° C., unless otherwise stated, the wells were washed five times with saline and bound M. pneumoniae was quantified by scintillation counting in Aquasol. For inhibition studies, various polysaccharides were serially diluted in […] of [^3 H]-M. pneumoniae.
To obtain the results shown in FIG. 4, polysaccharides were serially diluted in 25 μl of RPMI-BSA in microtiter wells previously coated with 1 μg of purified sulfatide. Binding was determined after incubation of two hours at 37° C. with 25 μl of [^3 H]-M. pneumoniae with the indicated concentration of dextran ( .circle. ) or dextran sulfate.

[2] = tested on: M. pneumoniae adhesion to WiDr cells; test: Inhibition of M. pneumoniae adhesion to WiDr human colon adenocarcinoma cell monolayers; assay type: cell-based; details: WiDr cells
Experimental: (§1) Adhesion of [^3 H]-M. pneumoniae to cells on glass covered slips was measured by a modification of a method previously described by Chandler et al., Infect. Immun., op. cit. WiDr human colon adenocarcinoma, ATCC CCL 218 was grown in Eagle's minimal essential medium with 10% fetal calf serum in a 5% CO2 atmosphere at 37° C. The cells were removed with trypsin and plated on 12 mm round glass coverslips in 24-well tissue culture plates and grown for three days. Control coverslips were preincubated in medium without cells. The coverslips were washed in serum-free medium, then incubated in RPMI-BSA for fifteen minutes. The medium was removed and labelled M. pneumoniae suspended in 0.5 ml of RPMI-BSA were added to each well. The plates were incubated on a rocking table for 60 minutes at 37° C. The coverslips were washed by dipping in saline six times, and the bound radioactive bacteria were determined by scintillation counting. For inhibition studies, the inhibitors were added to M. pneumoniae prior to adding the bacteria to the coverslips.
Because virulent strains of M. pneumoniae adhere to mammalian cells, monolayers of WiDr cells were used to determine if dextran sulfate inhibits adhesion of the organism. [^3 H] -labelled M. pneumoniae was incubated with WiDr cell monolayers attached to coverslips in triplicate with an without dextran sulfate, as shown in Table II. […] In each experiment, 10 μg/ml dextran sulfate inhibited more than 1 μg/ml, but 100 μg/ml dextran sulfate caused no further inhibition. Thus, maximal inhibition was obtained with approximately 10 μg/ml of dextran sulfate. Similar results were obtained with MRC5 lung fibroblasts where in three experiments a mean of 47% of M. pneumoniae adhesion was inhibited by dextran sulfate.
(§2) Adhesion of labelled M. pneumoniae to WiDr cells on glass cover slips was determined as described previously. For inhibition studies, dextran sulfate and 3'-sialyllactose were dissolved in RPMI-BSA and the pH was adjusted to 7.4 with NaOH. The inhibitors were added to wells containing washed cover slips with attached WiDr cells or blank cover slips preincubated in medium or tris-BSA. Labelled M. pneumoniae were added immediately and incubated with slow rocking for sixty minutes at 37° C. After the coverslips were washed by dipping six times in saline, bound M. pneumoniae were determined by scintillation counting in Aquasol. […] After washing to remove the unbound organisms, the bound mycoplasma were determined by scintillation counting. Binding to uncoated wells was 3% of the applied radioactivity.
Adhesion of [^3 H]-M. pneumoniae to WiDr cells growing on 13 mm glass cover slips was determined as described above. Inhibition by dextran sulfate or 3'-sialyllactose at the indicated concentrations was calculated relative to control binding determined in RPMI/BSA without inhibitors. The results are presented as percent inhibition (mean±S.D. n=4 with n=8 for determination of control binding without inhibitor).

[3] = tested on: M. pneumoniae adhesion to MRC5 lung fibroblasts; test: Inhibition of M. pneumoniae adhesion to MRC5 lung fibroblasts; assay type: cell-based, human; details: mean of three experiments
Experimental: as §1
Because virulent strains of M. pneumoniae adhere to mammalian cells, monolayers of WiDr cells were used to determine if dextran sulfate inhibits adhesion of the organism. [^3 H] -labelled M. pneumoniae was incubated with WiDr cell monolayers attached to coverslips in triplicate with an without dextran sulfate, as shown in Table II. […]

[4] = target: M. pneumoniae binding to laminin; test: Inhibition of M. pneumoniae binding to laminin adsorbed on plastic; set-up: species or system Mycoplasma pneumoniae strain M129; details: laminin adsorbed on plastic
Experimental: Glycoproteins dissolved in 0.01 M sodium phosphate buffer, pH 7.4, containing 150 mM NaCl, 1 mM CaCl2, and 0.01% NaN3 were adsorbed onto plastic polyvinylchloride […] microtiter plates by incubation for 16 hours at 4° C. The unbound proteins were removed, and the wells were filled with tris-BSA and incubated for 30 minutes at room temperature. The wells were rinsed with RPMI1640 containing 25 mM HEPES, pH 7.3, and 1% bovine serum albumin. M. pneumoniae strain M129 labelled with [^3 H]-palmitate were dispersed in RPMI-BSA by passing four times through a 26 gauge needle, and 50 μl of the suspension was applied to the wells. After incubation for 60 minutes at 37° C., the wells were washed five times with saline and the labelled M. pneumoniae bound to the proteins were quantified by scintillation counting in Aquasol.
For inhibition studies, sugars in 25 μl of RPMI-BSA were added to wells coated with 10 μg/ml laminin followed by 25 μl of [^3 H]-M. pneumoniae. Binding was determined to both laminin-coated and uncoated wells in triplicate at each inhibitor concentration and in the absence of inhibitor. In some experiments, the adsorbed proteins were pretreated with neuraminidase. After adsorption of the proteins and incubation in tris-BSA, the wells were rinsed three times with 50 mM sodium acetate, pH 5.5, containing 150 mM NaCl, 5 mM CaCl2, 1 mg/ml bovine serum albumin, and 1 mM phenylmethanesulfonyl fluoride. The wells were incubated with 0.05 units/ml neuraminidase in the same buffer or with buffer without enzyme overnight at 20° C. The wells were rinsed three times with tris-BSA, and M. pneumoniae binding was determined as described above.

[5] = tested on: M. pneumoniae adhesion to coverslips; test: Inhibition of nonspecific adhesion of M. pneumoniae to coverslips without cells; assay type: binding, Mycoplasma pneumoniae strain M129; details: coverslips preincubated in medium containing fetal calf serum
Experimental: as §1, §2

[6] = tested on: M. hominus binding to sulfatide; test: Inhibition of M. hominus binding to purified sulfatide; set-up: species or system Mycoplasma hominus
[7] = tested on: M. hominus adhesion to human colon adenocarcinoma cells; test: Inhibition of M. hominus adhesion to cultured human colon adenocarcinoma cells; assay type: cell-based

dextran sulfate
concentration inhibiting binding to sulfatide by 50% ([1]; 1 μg sulfatide, 37° C., 2 hours): 0.4 µg/mL | inhibition of binding to sulfatide at 1 μg/ml (in words) ([1]; 1 μg/ml): completely abolished binding | inhibition of binding to sulfatide (in words) [1]: potent inhibitor; also recorded: completely inhibits binding | inhibition of binding to sulfatide (in words) ([1]; listed as Dextran sulfate): inhibits M. pneumoniae binding to sulfatide | concentration giving maximal inhibition of adhesion [2]: approximately 10 μg/ml | inhibition of adhesion to WiDr cells (in words) [2]: partially inhibit; also recorded: only partially inhibited; also recorded: partially inhibits adhesion; also recorded: partial inhibition | inhibition of adhesion to WiDr cells (in words) ([2]; listed as Dextran sulfate): inhibited adhesion in all three experiments | inhibition of M. pneumoniae adhesion [3]: 47% | I.D.50, substrate laminin [4]: > 200 µg/mL | inhibition of binding to laminin (in words) [4]: no effect | inhibition of binding to laminin (in words) ([4]; listed as Dextran sulfate): does not inhibit attachment on laminin | inhibition of non-specific adhesion to coverslips (in words) [5]: not by dextran sulfate | inhibition of M. hominus binding to sulfatide (in words) [6]: completely inhibits binding | inhibition of M. hominus adhesion (in words) [7]: partially inhibits adhesion

Source: patent US5089479A, “Adhesion of Mycoplasma pneumoniae and Mycoplasma hominus to sulfatide” (priority 1988, dated 1992)
